{"source": "patent US20150174034A1", "about": "“TYROSINASE INHIBITORS” (Avon Products, Inc., priority 2013, published 2015)", "key": {"[1]": {"system": "Human Epidermal Melanocytes, neonatal, darkly pigmented donor (HEMn-DP)", "assay": "Human primary melanocyte pigmentation assay (HEMn-DP)", "assay_type": "cell-based", "conditions": "5 days, normalized to cell viability", "method": "The effects of various test compounds on melanin productions were determined by performing assays using Human Epidermal Melanocytes, neonatal, darkly pigmented donor (HEMn-DP). The HEMn-DP cells were seeded (Invitrogen; cat. #: C-202-5C) into 6-well tissue culture-treated plates (BD Falcon) and treated with test actives or controls in Medium 254 (Invitrogen; cat. #: M-254-500) supplemented with 1% HMSG (Invitrogen; cat. #: S-002-5) and 1% P/S. The cells were examined for their ability to modulate pigment formation. […] Tests were performed in triplicates each. Following the treatment period (5 days), supernatants were aspirated. The melanin was extracted with 0.5 ml of 2N NaOH for 30 minutes at 80° C. The level of melanin synthesized within the cells was quantified by reading the absorbance at 405 nm using a standard microplate reader (Tecan Group Ltd.).\nThe cell viability was determined using the MTT conversion method. The MTT conversion method measures the reduction of the MTT dye from a yellow colored, water-soluble, tetrazolium salt to a bluish-purple colored insoluble formazan precipitate by NAD(P)H-dependent microsomal dehydrogenase enzymes, which only function in viable cells. The intensity of the blue color is indicative of cell viability. […] The cells were then exposed to MTT dye solution (1 mg/ml) for two to three hours. Formazan material was solubilized with reagent alcohol (95% ethanol: 5% isopropanol) and shaken on an orbital shaker for 15-30 minutes. MTT dye uptake and conversion by viable cells were determined by measuring the extracted formazan at 570 nm using a microplate reader. Total pigmentation was calculated and normalized to cell viability values. The average percent change in melanin relative to control of the triplicates from the Human Primary Melanocyte Pigmentation Assay (HEMn-DP Pigmentation) is reported in the Table 3 in accordance with the scale: 0: <10% decrease in pigmentation level; +: between 11-30% decrease; ++: between 31-50% decrease; +++: between 51-70% decrease; ++++: >71% decrease; C=cytotoxic."}, "[2]": {"system": "B16 mouse melanoma cells", "assay": "Inhibition of melanin production, B16 melanoma cell assay", "assay_type": "cell-based", "conditions": "4 days, alpha MSH, normalized to cell viability", "method": "The effects of various test compounds on melanin levels were determined by performing assays using B16 melanoma cells. These cells are known to constitutively produce melanin and are a commonly utilized and accepted model system for monitoring the inhibition of melanin synthesis. The B16 mouse melanoma cells were seeded (ATCC, cat. #: CRL-6475) into 96-well tissue culture-treated plates (BD Falcon) and treated with test actives or controls in phenol red free DMEM (Mediatech; cat. #: 17-205-CV) with 2 nanogram/ml of alpha MSH (Fluka; cat #:63605). The cells were examined for their ability to modulate pigment formation. […] Tests were performed in 6 replicates each. Following the treatment period (4 days), the level of pigment produced or melanin synthesized was quantified by reading the absorbance at 540 nm using a standard microplate reader (Tecan Group Ltd.).\nAfter quantifying the amount of melanin, cell viability was determined using the MTT conversion method. The MTT conversion method measures the reduction of the MTT dye from a yellow colored, water-soluble, tetrazolium salt to a bluish-purple colored insoluble formazan precipitate by NAD(P)H-dependent microsomal dehydrogenase enzymes, which only function in viable cells. The intensity of the blue color is indicative of cell viability. After quantifying the amount of melanin pigment produced, the cells were exposed to MTT dye solution (1 mg/ml) for two to three hours. Formazan material was solubilized with reagent alcohol (95% ethanol: 5% isopropanol) and shaken on an orbital shaker for 15-30 minutes. MTT dye uptake and conversion by viable cells were determined by measuring the extracted formazan at 570 nm using a microplate reader. Total pigmentation was calculated, normalized to cell viability values and expressed as the average percent change in melanin activity relative to control of the six experiments performed.\nThe assay data in Table 2 uses the following scale: 0: <10% decrease; +: between […] decrease; ++: 31-50% decrease; +++: between 51-70% decrease; ++++: >71% decrease; C=cytotoxic"}, "[3]": {"system": "MELANODERM (MEL-300-B) human skin model", "assay": "3D skin equivalent tissue pigmentation assay (MELANODERM)", "assay_type": "cell-based", "conditions": "topical, tissues collected Day 11", "method": "The effect of the tyrosinase inhibitors on melanin levels was investigated using a MELANODERM™ (MEL-300-B, MatTek Corp., Ashland, Mass.) human skin model. MELANODERM™ is a viable reconstituted three-dimensional human skin equivalent containing melanocytes derived from African-American donors. Tissues were maintained in culture medium EPI-100-NMM-113 at 37° C. as recommended by the manufacturer.\n10 μl of the solution was applied topically to the MELANODERM™ tissue while culture medium was added on days 1, 2, 4, 7, and 9. Control tissues were treated with the 10 μl of corresponding vehicle only. On Day 11, tissues were collected and homogenized in a buffer containing 1% SDS, 50 mM EDTA, and 10 mM Tris, pH 6.8. To each homogenate, protease K (5 mg/ml) was added and incubated overnight at 45° C. Additional protease K was added and incubated for 4 hours at 45° C., followed by the addition of 0.5M sodium carbonate and 30% H2O2 and incubation at 80° C. for 30 minutes. The samples were cooled down to room temperature, and extracted with chloroform/methanol (2:1). After centrifugation at 10,000 g for 10 minutes, absorbance of the top phase was measured at 450 nm. Percent change in melanin levels in treated tissue was calculated relative to control. The average percent change in melanin relative to control of the three tissues is reported in the Table 4 in accordance with the scale: 0: <7% decrease in pigmentation level; +: between 8-14% decrease; ++: between 15-20% decrease; +++: between 21-30% decrease; ++++: >31% decrease; C=cytotoxic"}, "[4]": {"system": "Mushroom tyrosinase", "assay": "Mushroom tyrosinase assay", "assay_type": "biochemical", "conditions": "L-Tyrosine substrate, 25° C., 30 min", "method": "Mushroom tyrosinase and L-Tyrosine were obtained from Sigma-Aldrich, Inc. (St. Louis, Mo.). The enzyme activity was measured in buffer containing 100 mM phosphate buffer pH 6.8, 5% absolute ethanol, 2 micrograms/milliliter mushroom tyrosinase, and 0.2 mg/ml L-Tyrosine. The reaction (conversion of L-Tyrosine to DOPAchrome) was conducted in triplicates at 25° C. for 30 min, and absorbance was then measured at 492 nm. Kojic Acid was used as a positive control inhibitor in these assays. Percent change in tyrosinase activity relative to vehicle control was calculated."}}}
{"smiles": "C/C(=N/NC(=S)NC(C)C)c1ccc2c(c1)OCO2", "note": "[AV2043]", "values": [{"measurement": "Human primary melanocyte pigmentation assay (change in melanin compared to DMSO vehicle control)", "setting": "[1]; concentration 0.0001%", "result": "+ (between 11-30% decrease)"}, {"measurement": "Human primary melanocyte pigmentation assay (change in melanin compared to DMSO vehicle control)", "setting": "[1]; concentration 0.001%", "result": "++ (between 31-50% decrease)"}, {"measurement": "B16 Assay Pigmentation Decrease (percent change in melanin compared to DMSO vehicle control)", "setting": "[2]; concentration 0.0001%", "result": "++ (31-50% decrease)"}, {"measurement": "3D Tissue Pigmentation Assay (change in melanin compared to vehicle control)", "setting": "[3]; concentration 0.05%", "result": "+++ (between 21-30% decrease)"}, {"measurement": "3D Tissue Pigmentation Assay (change in melanin compared to vehicle control)", "setting": "[3]; concentration 0.1%", "result": "+++ (between 21-30% decrease)"}]}
{"smiles": "C/C(=N/NC(=S)NCC1CCCO1)c1ccc2c(c1)OCO2", "note": "(centres unmarked) [AV1221]", "values": [{"measurement": "Human primary melanocyte pigmentation assay (change in melanin compared to DMSO vehicle control)", "setting": "[1]; concentration 0.0001%", "result": "+ (between 11-30% decrease)"}, {"measurement": "Human primary melanocyte pigmentation assay (change in melanin compared to DMSO vehicle control)", "setting": "[1]; concentration 0.001%", "result": "++++ (>71% decrease)"}, {"measurement": "B16 Assay Pigmentation Decrease (percent change in melanin compared to DMSO vehicle control)", "setting": "[2]; concentration 0.0001%", "result": "++ (31-50% decrease)"}, {"measurement": "B16 Assay Pigmentation Decrease (percent change in melanin compared to DMSO vehicle control)", "setting": "[2]; concentration 0.001%", "result": "++++ (>71% decrease)"}, {"measurement": "3D Tissue Pigmentation Assay (change in melanin compared to vehicle control)", "setting": "[3]; concentration 0.05%", "result": "+++ (between 21-30% decrease)"}, {"measurement": "3D Tissue Pigmentation Assay (change in melanin compared to vehicle control)", "setting": "[3]; concentration 0.1%", "result": "++ (between 15-20% decrease)"}]}
{"smiles": "Oc1ccc(C=NNC(=S)NCC2CCCO2)c(O)c1", "note": "(centres unmarked) [AV6989]", "values": [{"measurement": "B16 Assay Pigmentation Decrease (percent change in melanin compared to DMSO vehicle control)", "setting": "[2]; concentration 0.0001%", "result": "−79", "unit": "%"}, {"measurement": "Tyrosinase Inhibition (percent change in tyrosinase activity compared to DMSO vehicle control)", "setting": "[4]; concentration 0.001%", "result": "−36", "unit": "%"}, {"measurement": "Tyrosinase Inhibition (percent change in tyrosinase activity compared to DMSO vehicle control)", "setting": "[4]; concentration 0.01%", "result": "−75", "unit": "%"}]}
{"smiles": "Cc1ccc(/C=N/NC(=S)NCC2CCCO2)s1", "note": "(centres unmarked) [AV3793]", "values": [{"measurement": "Human primary melanocyte pigmentation assay (change in melanin compared to DMSO vehicle control)", "setting": "[1]; concentration 0.0001%", "result": "0 (<10% decrease in pigmentation level)"}, {"measurement": "Human primary melanocyte pigmentation assay (change in melanin compared to DMSO vehicle control)", "setting": "[1]; concentration 0.001%", "result": "+++ (between 51-70% decrease)"}, {"measurement": "B16 Assay Pigmentation Decrease (percent change in melanin compared to DMSO vehicle control)", "setting": "[2]; concentration 0.0001%", "result": "+ (between 20-30% decrease)"}, {"measurement": "B16 Assay Pigmentation Decrease (percent change in melanin compared to DMSO vehicle control)", "setting": "[2]; concentration 0.001%", "result": "+++ (between 51-70% decrease)"}, {"measurement": "3D Tissue Pigmentation Assay (change in melanin compared to vehicle control)", "setting": "[3]; concentration 0.05%", "result": "++ (between 15-20% decrease)"}, {"measurement": "3D Tissue Pigmentation Assay (change in melanin compared to vehicle control)", "setting": "[3]; concentration 0.1%", "result": "+++ (between 21-30% decrease)"}]}
